Reference: patent US20060183119A1, “Method for determining predisposition to a physiological reaction in a patient” (UNIVERSITE LAVAL, priority 2002, published 2006)
Where a chain is given by its changes, count along the chain named.

Assays:
UGT1A7*3 = molecular target: T1, UGT1A7*3 (Homo sapiens, UniProt Q9HAW7, N129K/R131K/W208R); assay: SN-38 glucuronidation by microsomes of HEK293 cells expressing UGT1A7*3; assay type: in vitro ADME; design: key to Function (SN-38G formation versus *1 allele): High: no significant difference in activity compared to *1 allele.; Low: significantly lower SN-38G formation versus *1 allele
T1 construct: expressed in transfected cells
T1 sequence (Q9HAW7 26-530 N129K/R131K/W208R): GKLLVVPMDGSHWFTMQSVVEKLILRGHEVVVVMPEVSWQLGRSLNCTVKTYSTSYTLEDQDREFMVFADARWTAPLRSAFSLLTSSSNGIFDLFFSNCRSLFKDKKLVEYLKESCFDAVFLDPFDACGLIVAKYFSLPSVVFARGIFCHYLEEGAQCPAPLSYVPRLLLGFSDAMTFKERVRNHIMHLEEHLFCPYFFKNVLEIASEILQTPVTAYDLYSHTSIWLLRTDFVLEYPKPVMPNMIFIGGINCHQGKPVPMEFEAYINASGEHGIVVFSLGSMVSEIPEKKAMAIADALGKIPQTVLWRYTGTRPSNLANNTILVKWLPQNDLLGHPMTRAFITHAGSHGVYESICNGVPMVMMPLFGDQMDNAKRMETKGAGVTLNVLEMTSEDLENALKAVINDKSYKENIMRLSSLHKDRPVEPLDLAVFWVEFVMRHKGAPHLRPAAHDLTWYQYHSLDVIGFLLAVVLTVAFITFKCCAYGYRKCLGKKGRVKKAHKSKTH
Description: (§1) Western blot analyses of UGT1A7 and UGT1A9 variants expressed in HEK293 cells were performed on microsomal proteins (10 μg) separated on a 10% SDS-polyacrylamide gel. After transferring the proteins, the membranes were probed with an anti-UGT1A RC-71 polyclonal antibody and with an anti-calnexin antibody. The relative levels of UGT1A9 (a) and UGT1A7 proteins (b) were determined by semi-quantitative densitometric analysis of the Enhanced chemiluminescence (ECL) image. The in vitro SN-38 activity was assessed using microsomal fractions prepared from HEK293 cells expressing the *1 and variant UGT1A9 (c) and UGT1A7 (d) alleles and incubated with 5 μM of SN-38 as described in Materials and Methods.
(§2) For the determination of Vmax and Km.

UGT1A7*2 = molecular target: T2, UGT1A7*2 (Homo sapiens, UniProt Q9HAW7, N129K/R131K); assay: SN-38 glucuronidation by microsomes of HEK293 cells expressing UGT1A7*2; assay type: in vitro ADME; design: key to Function (SN-38G formation versus *1 allele): High: no significant difference in activity compared to *1 allele.; Low: significantly lower SN-38G formation versus *1 allele
T2 construct: expressed in transfected cells
T2 sequence (Q9HAW7 26-530 N129K/R131K): T1 sequence (Q9HAW7 26-530 N129K/R131K/W208R) with R183W
Description: as §1, §2

CCc1c2c(nc3ccc(O)cc13)-c1cc3c(c(=O)n1C2)COC(=O)[C@]3(O)CC [SN-38, 7-ethyl-10-hydroxycamptothecin]
SN-38 glucuronidating activity of the allele (in words) (UGT1A7*3): low | Function (SN-38G formation versus *1 allele) (UGT1A7*3; in vitro experiments): Low | SN-38 glucuronidating activity of the allele (in words) (UGT1A7*2): highest | Function (SN-38G formation versus *1 allele) (UGT1A7*2; in vitro experiments): High
